Read-outs that look alike come from different tables or passages of the source. Ends that are not written are not given here.
Columns and labels:
Assay type in all cases: binding
MAGI2_2 PDZ = MAGI2_2 PDZ (Homo sapiens, UniProt Q86UL8); test: Holdup assay
MAST2 PDZ = molecular target: T1, MAST2 PDZ (Homo sapiens, UniProt Q6P0Q8); test: biochemical; conditions: composite holdup affinity; 0.00=below quantification threshold; read-out: COMP pKd (converted)
T1 sequence (Q6P0Q8 1104-1192 limits assumed): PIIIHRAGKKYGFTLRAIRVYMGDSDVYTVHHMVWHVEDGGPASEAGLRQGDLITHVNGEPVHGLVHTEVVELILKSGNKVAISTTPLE

DLG1_3 PDZ = DLG1_3 PDZ (Homo sapiens, UniProt Q12959); test: Holdup assay
SNTA1 PDZ = molecular target: T2, SNTA1 PDZ (Homo sapiens, UniProt Q13424); test: Holdup assay
T2 sequence (Q13424 87-170 limits assumed): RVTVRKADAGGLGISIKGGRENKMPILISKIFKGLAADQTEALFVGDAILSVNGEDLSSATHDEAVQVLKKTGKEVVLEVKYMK

ARHGEF11 PDZ = molecular target: T3, ARHGEF11 PDZ (Homo sapiens, UniProt O15085); test: Holdup assay
T3 sequence (O15085 47-126 limits assumed): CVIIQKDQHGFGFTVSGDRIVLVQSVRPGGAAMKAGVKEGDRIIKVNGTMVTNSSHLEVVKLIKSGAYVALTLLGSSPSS

PDZD7_3 PDZ = molecular target: T4, PDZD7_3 PDZ (Homo sapiens, UniProt Q9H5P4); test: Holdup assay
T4 sequence (Q9H5P4 862-934 limits assumed): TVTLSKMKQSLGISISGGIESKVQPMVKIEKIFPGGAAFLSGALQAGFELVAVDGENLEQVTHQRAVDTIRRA

DLG4_2 PDZ = DLG4_2 PDZ (Homo sapiens, UniProt P78352); test: Holdup assay
Chain of DLG4_2 PDZ (P78352 160-246 limits assumed): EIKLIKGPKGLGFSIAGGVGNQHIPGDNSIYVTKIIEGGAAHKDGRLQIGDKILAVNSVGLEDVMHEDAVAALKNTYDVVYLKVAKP

DLG4_3 PDZ = DLG4_3 PDZ (Homo sapiens, UniProt P78352); test: Holdup assay
Chain of DLG4_3 PDZ (P78352 313-393 limits assumed): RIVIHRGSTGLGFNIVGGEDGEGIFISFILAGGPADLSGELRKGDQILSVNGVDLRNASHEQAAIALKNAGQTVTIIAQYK

DLG3_2 PDZ = molecular target: T5, DLG3_2 PDZ (Homo sapiens, UniProt Q92796); test: Holdup assay
T5 sequence (Q92796 226-311 limits assumed): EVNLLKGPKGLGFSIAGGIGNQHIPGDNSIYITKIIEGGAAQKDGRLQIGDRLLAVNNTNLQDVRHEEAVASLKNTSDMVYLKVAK

SNTB1 PDZ = molecular target: T6, SNTB1 PDZ (Homo sapiens, UniProt Q13884); test: Holdup assay
T6 sequence (Q13884 112-195 limits assumed): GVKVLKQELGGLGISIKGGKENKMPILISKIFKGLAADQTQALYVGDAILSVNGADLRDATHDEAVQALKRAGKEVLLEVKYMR

DLG3_1 PDZ = molecular target: T7, DLG3_1 PDZ (Homo sapiens, UniProt Q92796); test: Holdup assay
T7 sequence (Q92796 130-217 limits assumed): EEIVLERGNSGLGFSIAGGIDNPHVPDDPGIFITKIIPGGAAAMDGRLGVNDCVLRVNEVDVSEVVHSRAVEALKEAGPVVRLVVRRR

NHERF3_1 PDZ = molecular target: T8, NHERF3_1 PDZ (Homo sapiens, UniProt Q5T2W1); test: Holdup assay
T8 sequence (Q5T2W1 9-90 limits assumed): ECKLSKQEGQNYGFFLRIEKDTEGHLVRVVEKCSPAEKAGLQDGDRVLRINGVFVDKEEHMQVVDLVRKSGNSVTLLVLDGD

SNTG2 PDZ = molecular target: T9, SNTG2 PDZ (Homo sapiens, UniProt Q9NY99); test: Holdup assay
T9 sequence (Q9NY99 73-156 limits assumed): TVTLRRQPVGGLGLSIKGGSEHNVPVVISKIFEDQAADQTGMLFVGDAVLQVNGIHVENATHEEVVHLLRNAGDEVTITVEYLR

SCRIB_1 PDZ = SCRIB_1 PDZ (Homo sapiens, UniProt Q14160); test: Holdup assay
Chain of SCRIB_1 PDZ (Q14160 728-815 limits assumed): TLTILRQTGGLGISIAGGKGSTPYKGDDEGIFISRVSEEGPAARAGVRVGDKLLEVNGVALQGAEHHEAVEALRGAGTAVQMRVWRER

DLG2_3 PDZ = molecular target: T10, DLG2_3 PDZ (Homo sapiens, UniProt Q15700); test: Holdup assay
T10 sequence (Q15700 421-501 limits assumed): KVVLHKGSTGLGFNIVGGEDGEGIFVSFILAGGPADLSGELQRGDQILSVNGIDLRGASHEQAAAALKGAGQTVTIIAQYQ

TX1BP3 PDZ = molecular target: T11, TX1BP3 PDZ (Homo sapiens, UniProt O14907); test: Holdup assay
T11 sequence (O14907 15-112 limits assumed): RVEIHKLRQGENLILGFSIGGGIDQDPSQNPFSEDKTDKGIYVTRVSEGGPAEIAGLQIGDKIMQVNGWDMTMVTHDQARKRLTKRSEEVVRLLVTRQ

MAGI2_5 PDZ = MAGI2_5 PDZ (Homo sapiens, UniProt Q86UL8); test: Holdup assay
Chain of MAGI2_5 PDZ (Q86UL8 920-1010 limits assumed): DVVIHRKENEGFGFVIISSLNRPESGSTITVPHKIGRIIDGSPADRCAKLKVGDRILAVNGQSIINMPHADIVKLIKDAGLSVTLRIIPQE

NOS1 PDZ = NOS1 PDZ (Homo sapiens, UniProt P29475); test: Holdup assay
Chain of NOS1 PDZ (P29475 17-99 limits assumed): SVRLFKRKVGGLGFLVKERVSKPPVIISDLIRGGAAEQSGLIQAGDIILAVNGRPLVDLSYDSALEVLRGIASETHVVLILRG

MAGI3_2 PDZ = MAGI3_2 PDZ (Homo sapiens, UniProt Q5TCQ9); test: Holdup assay
Chain of MAGI3_2 PDZ (Q5TCQ9 410-492 limits assumed): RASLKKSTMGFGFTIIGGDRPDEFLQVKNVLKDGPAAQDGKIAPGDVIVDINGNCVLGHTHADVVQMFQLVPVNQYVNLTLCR

DLG1_2 PDZ = DLG1_2 PDZ (Homo sapiens, UniProt Q12959); test: Holdup assay
PTPN3 PDZ = molecular target: T12, PTPN3 PDZ (Homo sapiens, UniProt P26045); test: Holdup assay
T12 sequence (P26045 510-582 limits assumed): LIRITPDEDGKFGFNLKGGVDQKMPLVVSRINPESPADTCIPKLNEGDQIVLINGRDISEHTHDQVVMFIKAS

LIN7C PDZ = molecular target: T13, LIN7C PDZ (Homo sapiens, UniProt Q9NUP9); test: Holdup assay
T13 sequence (Q9NUP9 93-175 limits assumed): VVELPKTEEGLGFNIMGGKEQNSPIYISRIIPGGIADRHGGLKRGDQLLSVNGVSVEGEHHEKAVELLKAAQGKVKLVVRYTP

SCRIB2 PDZ = molecular target: T14, SCRIB2 PDZ (Homo sapiens, UniProt Q14160); test: Holdup assay
T14 sequence (Q14160 862-950 limits assumed): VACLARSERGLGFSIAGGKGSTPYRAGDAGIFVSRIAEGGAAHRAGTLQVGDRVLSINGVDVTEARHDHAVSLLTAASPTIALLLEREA

DLG1_1 PDZ = DLG1_1 PDZ (Homo sapiens, UniProt Q12959); test: Holdup assay
DLG2_2 PDZ = DLG2_2 PDZ (Homo sapiens, UniProt Q15700); test: Holdup assay
Chain of DLG2_2 PDZ (Q15700 193-279 limits assumed): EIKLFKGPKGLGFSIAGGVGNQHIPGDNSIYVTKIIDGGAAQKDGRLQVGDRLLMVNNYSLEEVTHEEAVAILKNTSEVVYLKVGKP

MAGI1_2 PDZ = MAGI1_2 PDZ (Homo sapiens, UniProt Q96QZ7); test: biochemical
Chain of MAGI1_2 PDZ (Q96QZ7 472-554 limits assumed): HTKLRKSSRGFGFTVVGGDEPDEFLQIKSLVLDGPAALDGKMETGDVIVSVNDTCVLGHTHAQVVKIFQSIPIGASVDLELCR

DLG4_1 PDZ = DLG4_1 PDZ (Homo sapiens, UniProt P78352); test: Holdup assay
Chain of DLG4_1 PDZ (P78352 65-151): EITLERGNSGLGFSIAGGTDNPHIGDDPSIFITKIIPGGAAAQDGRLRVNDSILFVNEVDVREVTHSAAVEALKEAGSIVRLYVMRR

[1] = composite holdup affinity, 0.00=below quantification threshold, read-out: COMP pKd (converted)

Chain of MAGI2_2 PDZ (Q86UL8 426-510 limits assumed): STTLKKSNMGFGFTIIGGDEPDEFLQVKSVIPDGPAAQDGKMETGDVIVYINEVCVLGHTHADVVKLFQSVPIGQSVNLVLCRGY

## SRRPRTETQV [HPV31-E6]
MAGI2_2 PDZ; [1]
  Kd: 0.417 µM
MAST2 PDZ
  Kd: 5.89 µM
DLG1_3 PDZ; [1]
  Kd: 25.1 µM
SNTA1 PDZ; [1]
  Kd: 51.3 µM
ARHGEF11 PDZ; [1]
  Kd: 263 µM
PDZD7_3 PDZ; [1]
  Kd: 195 µM
DLG4_2 PDZ; [1]
  Kd: 4.37 µM
DLG4_3 PDZ; [1]
  Kd: 7.94 µM
DLG3_2 PDZ; [1]
  Kd: 3.89 µM
SNTB1 PDZ; [1]
  Kd: 70.8 µM
DLG3_1 PDZ; [1]
  Kd: 36.3 µM
NHERF3_1 PDZ; [1]
  Kd: 47.9 µM
SNTG2 PDZ; [1]
  Kd: 83.2 µM
SCRIB_1 PDZ; [1]
  Kd: 25.1 µM
DLG2_3 PDZ; [1]
  Kd: 7.94 µM
TX1BP3 PDZ; [1]
  Kd: 24.5 µM
MAGI2_5 PDZ; [1]
  Kd: 129 µM
NOS1 PDZ; [1]
  Kd: 123 µM
MAGI3_2 PDZ; [1]
  Kd: 1.35 µM
DLG1_2 PDZ; [1]
  Kd: 1.62 µM
PTPN3 PDZ; [1]
  Kd: 21.9 µM
LIN7C PDZ; [1]
  Kd: 117 µM
SCRIB2 PDZ; [1]
  Kd: 41.7 µM
DLG1_1 PDZ; [1]
  Kd: 6.92 µM
DLG2_2 PDZ; [1]
  Kd: 4.27 µM
MAGI1_2 PDZ; [1]
  Kd: 2.88 µM
DLG4_1 PDZ; [1]
  Kd: 9.55 µM

## CC(C)C[C@H](NC(=O)[C@@H](N)CCCNC(=N)N)C(=O)N[C@@H](CCC(N)=O)C(=O)N[C@@H](CCCNC(=N)N)C(=O)N[C@@H](CCCNC(=N)N)C(=O)N[C@@H](CCCNC(=N)N)C(=O)N[C@@H](CCC(=O)O)C(=O)N[C@H](C(=O)N[C@@H](CCC(N)=O)C(=O)N[C@H](C(=O)O)C(C)C)[C@@H](C)O [HPV18-E6]
MAGI2_2 PDZ
  Kd: 6.92 µM
MAST2 PDZ
  Kd: 16.6 µM
DLG1_3 PDZ
  Kd: 9.55 µM
SNTA1 PDZ
  Kd: 20 µM
ARHGEF11 PDZ
  Kd: 219 µM
PDZD7_3 PDZ
  Kd: 105 µM
DLG4_2 PDZ
  Kd: 3.47 µM
DLG4_3 PDZ
  Kd: 1.82 µM
DLG3_2 PDZ
  Kd: 3.47 µM
SNTB1 PDZ
  Kd: 5.89 µM
DLG3_1 PDZ
  Kd: 45.7 µM
NHERF3_1 PDZ
  Kd: 89.1 µM
SNTG2 PDZ
  Kd: 93.3 µM
SCRIB_1 PDZ
  Kd: 55 µM
DLG2_3 PDZ
  Kd: 8.71 µM
TX1BP3 PDZ
  Kd: 21.9 µM
MAGI2_5 PDZ
  Kd: 166 µM
NOS1 PDZ
  Kd: 195 µM
MAGI3_2 PDZ
  Kd: 2.75 µM
DLG1_2 PDZ
  Kd: 1.66 µM
PTPN3 PDZ
  Kd: 32.4 µM
LIN7C PDZ
  Kd: 67.6 µM
SCRIB2 PDZ
  Kd: 36.3 µM
DLG1_1 PDZ
  Kd: 5.5 µM
DLG2_2 PDZ
  Kd: 6.46 µM
MAGI1_2 PDZ
  Kd: 1.07 µM
DLG4_1 PDZ
  Kd: 7.76 µM

## SKPTRRETEV [HPV35-E6]
MAGI2_2 PDZ; [1]
  Kd: 11.7 µM
MAST2 PDZ
  Kd: 8.13 µM
DLG1_3 PDZ; [1]
  Kd: 17 µM
SNTA1 PDZ; [1]
  Kd: 14.1 µM
ARHGEF11 PDZ; [1]
  Kd: 77.6 µM
PDZD7_3 PDZ; [1]
  Kd: 50.1 µM
DLG4_2 PDZ; [1]
  Kd: 3.09 µM
DLG4_3 PDZ; [1]
  Kd: 6.31 µM
DLG3_2 PDZ; [1]
  Kd: 3.24 µM
SNTB1 PDZ; [1]
  Kd: 20.9 µM
DLG3_1 PDZ; [1]
  Kd: 35.5 µM
NHERF3_1 PDZ; [1]
  Kd: 91.2 µM
SNTG2 PDZ; [1]
  Kd: 112 µM
SCRIB_1 PDZ; [1]
  Kd: 27.5 µM
DLG2_3 PDZ; [1]
  Kd: 4.9 µM
TX1BP3 PDZ; [1]
  Kd: 11.7 µM
MAGI2_5 PDZ; [1]
  Kd: 66.1 µM
NOS1 PDZ; [1]
  Kd: 182 µM
MAGI3_2 PDZ; [1]
  Kd: 4.07 µM
DLG1_2 PDZ; [1]
  Kd: 2.29 µM
PTPN3 PDZ; [1]
  Kd: 11.7 µM
LIN7C PDZ; [1]
  Kd: 174 µM
SCRIB2 PDZ; [1]
  Kd: 20 µM
DLG1_1 PDZ; [1]
  Kd: 9.55 µM
DLG2_2 PDZ; [1]
  Kd: 5.37 µM
MAGI1_2 PDZ; [1]
  Kd: 7.41 µM
DLG4_1 PDZ; [1]
  Kd: 8.13 µM

— paper PMC9482650, “Quantitative fragmentomics allow affinity mapping of interactomes” (Nature Communications, 2022)
